Results published in PubChem BioAssay (NCI).
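1) Cells in 96-well plates. 2) Compound, 48 h, 5 concentrations. 3) Linear interpolation between surrounding doses. 4) Unreached endpoint = highest concentration. GI50: concentration for 50% inhibition of growth. At the TGI there is no net growth.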

Columns and labels:
Experiment in all cases: NCI anticancer screen, dose series, 48 h
CAKI-1 renal = test system: CAKI-1 renal
U251 CNS = test system: U251 CNS
HCT-15 colon = test system: HCT-15 colon
A498 renal = test system: A498 renal
HCT-116 colon = test system: HCT-116 colon
SK-MEL-28 melanoma = test system: SK-MEL-28 melanoma
BT-549 breast = test system: BT-549 breast
RXF 393 renal = test system: RXF 393 renal

Structure (SMILES)	TGI (CAKI-1 renal) [µM]	TGI (U251 CNS) [µM]	TGI (HCT-15 colon) [µM]	TGI (A498 renal) [µM]	TGI (HCT-116 colon) [µM]	TGI (SK-MEL-28 melanoma) [µM]	TGI (BT-549 breast) [µM]	GI50 (CAKI-1 renal) [µM]	GI50 (U251 CNS) [µM]	GI50 (HCT-15 colon) [µM]	GI50 (A498 renal) [µM]	GI50 (HCT-116 colon) [µM]	GI50 (SK-MEL-28 melanoma) [µM]	GI50 (BT-549 breast) [µM]	GI50 (RXF 393 renal) [µM]	TGI (RXF 393 renal) [µM]
COc1ccc(NC(=O)/C(=N\NC(=O)C[n+]2ccccc2)c2c(O)c3ccc(O)cc3oc2=O)c([N+](=O)[O-])c1	> 100	> 100	> 100	> 100	> 100	> 100	> 100	–	–	–	–	–	–	–	–	–
COC(=O)C(Cc1ccccc1)NC(=O)NC(=O)NC(=O)CI (stereo unspecified)	4.08	30.5	3.13	33.2	11.1	13.8	21.8	2	16.6	1.66	18.4	3.27	3.5	10	7.75	20.2
COc1cc2c(c(OC)c1OC)-c1ncc3cc(OC)c(OC)c(OC)c3c1C2	74.3	> 100	83.5	–	> 100	78.1	–	22.5	33	23.4	–	33.5	25.4	–	11.2	33.1
CCCn1c(C)nc2c1C(=O)c1ccccc1C2=O	42.4	> 100	> 100	> 100	65.9	> 100	> 100	12.2	22.4	14.2	34.6	23.7	> 100	31.4	–	–
Clc1cc(Cl)c(OCC#CI)cc1Cl	2.69	29.6	23.5	26.6	3.47	5.14	19.8	1.09	15.4	5.02	13.7	1.75	2.12	7.21	2.37	6.28
COC(=O)Cn1c2c(c3c(O)cccc31)C(=O)c1ccccc1-2	> 100	> 100	> 100	> 100	> 100	> 100	> 100	> 100	79.2	> 100	> 100	> 100	> 100	> 100	> 100	> 100
COc1ccc(C2CC(c3cc(OC)c(OC)c(OC)c3)=NN2C(C)=O)cc1OCC(=O)Nc1nc2ccc(C(F)(F)F)cc2s1 (stereo unspecified)	–	9.9	> 100	9.7	–	–	82	–	3.08	9.26	2.78	–	–	3.55	2.09	5.32
O=C(N/N=C/c1ccc2c(c1)CCC2)c1ccccc1O	74.5	33.7	69.6	36.8	43.7	68.2	41.7	–	–	–	–	–	–	–	–	62
Nc1ncnc2[nH]ncc12	1.44	> 100	> 100	20.4	10.5	99	74.9	0.11	4.83	0.281	0.853	0.511	2.77	1.98	0.86	> 28.6
O=C(/C(=C/c1ccccc1)CN1CCCCC1)c1ccccc1	2.84	3.22	3.34	3.1	1.44	3.5	3.85	0.337	1.35	0.617	1.63	0.468	1.63	1.92	0.481	1.21
CN(C)c1ccc2c(c1)Sc1cc(N(C)C)ccc1N2C(=O)c1ccccc1	> 100	> 100	> 100	> 100	> 100	> 100	–	14.7	45.5	59.2	32.3	25	43.1	–	28.7	> 100
C=CCOC1OC(CO[Si](C)(C)C(C)(C)C)C(OCc2ccccc2)C(OCc2ccccc2)C1OCc1ccccc1 (stereo unspecified)	> 100	> 100	> 100	–	65.9	> 100	> 100	–	–	–	–	–	–	–	–	–
C=C1CC[C@@H]2[C@](C)(COC(C)=O)[C@@H](O)CC[C@@]2(C)[C@@H]1COc1ccc2ccc(=O)oc2c1	> 100	> 100	> 100	–	> 100	> 100	> 100	> 100	61.2	> 100	–	> 100	> 100	47.8	14.7	58.9
c1ccc2c(c1)c(NCCCCN1CCCCC1)cc1c3ccccc3c(NCCCCN3CCCCC3)cc21	46.1	29.8	47.5	32.9	32.7	–	45.2	21	7.67	22.8	13.6	5.22	–	20.7	15.7	38.2
CNC(=O)OCc1c(COC(=O)NC)c(C)n(-c2ccc(Br)cc2)c1C	> 100	25.5	29.1	3.21	25.8	35.2	–	–	–	–	–	–	–	–	–	19.8
N=C(N)c1ccc(N2CCCN(c3ccc(C(=N)N)cc3)CC2)cc1	> 100	> 100	> 100	9.62	> 100	> 100	–	99.7	47.7	65.3	1.76	> 100	> 100	–	98.2	> 100
O[C@H]1CO[C@H]2[C@@H]1OC[C@@H]2Oc1ccc(Nc2ccnc(Nc3ccc(O[C@H]4CO[C@H]5[C@@H]4OC[C@@H]5O)c(Cl)c3)n2)cc1Cl	10.2	4.02	6.6	–	9.12	11.6	8.14	1.79	1.62	2.32	–	2.24	3.04	2.2	1.5	3.8
COc1ccc(C(OCC2OC(n3ccc(NC(=O)c4ccccc4)nc3=O)C(O)C2O)(c2ccccc2)c2ccccc2)cc1 (stereo unspecified)	5.79	3.48	3.87	2.97	3.23	7.95	–	–	–	–	–	–	–	–	–	10.8
